Assay results reported in patent US5843916A, “Cyclic amp analogues, individually and in pairs, to inhibit neoplastic cell growth” (priority 1994, dated 1998).
“Also recorded” adds a separate entry of the source. Read-outs that look alike come from different tables or passages of the source.

How the values were obtained:
[1] = target: T1, RI, regulatory subunit of cAMP-dependent protein kinase type I (Oryctolagus cuniculus, UniProt G1TDN4); assay: Binding affinity for RI (Table 14)
T1 construct: from tissue
Experimental: (§1) RI and RII are the regulatory subunits of cAMP-dependent protein
(§2) kinase type I and type II, respectively. Site A (Site 2) and Site B
(§3) (RI and RII): the affinities of analogues for Site A and Site B were
(§4) determined by the measurement of kinetic constants (inhibition constant,
(§5) Ki), and the values are expressed as the relative affinity Ki
(§6) (analogue), i.e., the ratio between the apparent inhibition constant for
(§7) cAMP and the analogue, as described in Ogreid et al., Eur. J. Biochem.

[2] = test system: RI, regulatory subunit of cAMP-dependent protein kinase type I; assay: Binding affinity for RI (Table 14); settings: compared with 8-Cl-cAMP
Experimental: as §1, §2, §3, §4, §5, §6, §7

[3] = target: T2, RII, regulatory subunit of cAMP-dependent protein kinase type II (Bos taurus, UniProt P00515); assay: Binding affinity for RII (Table 14)
T2 construct: from tissue
Experimental: as §1, §2, §3, §4, §5, §6, §7

[4] = target: T3, Protein kinase type I (cAKI) (Oryctolagus cuniculus, UniProt G1TDN4); assay: Protein kinase activation (Table 15); format: biochemical, rabbit (skeletal muscle); settings: half-maximum activation; U. M.: unmeasurable
T3 construct: prepared from rabbit skeletal muscle and bovine heart; from tissue; host or cells: rabbit skeletal muscle
Experimental: (§8) ATP to Kemptide as described by Ogreid et al., Eur. J. Biochem. 150: 219-227 (1985).
(§9) Protein kinases types I (cAKI) and II (cAKII) were
(§10) prepared from rabbit skeletal muscle and bovine heart,
(§11) respectively, as described in D.o slashed.skeland et al. (J. Biol.
(§12) of the protein kinase in Ogreid et al. (Eur. J. Biochem.

[5] = target: T4, Protein kinase type II (cAKII) (Bos taurus, UniProt P00515); assay: Protein kinase activation (Table 15); format: biochemical, bovine (heart); settings: half-maximum activation; U. M.: unmeasurable
T4 construct: prepared from rabbit skeletal muscle and bovine heart; from tissue; host or cells: bovine heart
Experimental: as §8, §9, §10, §11, §12

[6] = test system: HL-60 human leukemia cells; assay: Growth inhibition of HL-60 leukemia cells (Example 3, Table 16); format: cell-based; settings: for IC50: Homo sapiens; for fold less potent than 8-Cl-cAMP: growth inhibition HL-60, day 6
Experimental: HL-60 leukemic cells were obtained from the American Type Culture Collection (Rockville, Md.) and were grown in suspension culture in RPMI 1640 supplemented with 10% heat-inactivated fetal bovine serum, streptomycin (500 μg/ml), penicillin (50 units/ml), and glutamine (1 mM) (Gibco, Grand Island, N.Y.).
Cell counts were performed at desired times on a Coulter Counter.
The IC50 values were determined from the dose-
represent an average value obtained for each analogue
from two or more separate experiments carried out from 3
days or 6 days. Initial cell number, 1 × 10^5 /dish.
Typical numbers of untreated control cells at day 3 and
viability in treated and control cells.

HL-60 Cells = assay: Cell cycle kinetics of HL-60 cells (Table 17); format: cell-based, human; settings: for % G2 M: control 8.3; for % G0-G1: control 45.7; for % S: control 46
Experimental: (§13) Briefly, cells were fixed in 70% ethanol and stored at 4° C. before analysis. Nuclear DNA was stained with propidium iodide, 50 μg/ml in phosphate-buffered saline (pH 7.4), for 30 minutes at room temperature. RNase was added to avoid double-helix RNA staining. The DNA content of cells was analyzed by a FACScan flow cytometer coupled with a Hewlett-Packard computer. Cell cycle data analysis was performed by a Cell-FIT program according to the method of Dean (Cell Tissue Kinet. 13: 299-308 (1980)) (Becton Dickinson Immunocytometry Systems). Pulse area versus pulse width gating was performed to exclude doublets from the G2 -M region. For each sample, 20,000 events were stored in list mode. Cell surface antigen analysis was performed by flow cytometry with FACScan using a panel of monoclonal antibodies reactive with either monocytic or myeloid cells.

[7] = test system: LS-174T human colon carcinoma cells; assay: Growth inhibition of LS-174T cells (Example 4, Table 18); format: cell-based
Experimental: LS-174T human colon carcinoma cells were obtained from the National Cancer Institute, Division of Cancer Treatment, Bethesda, Md., and were grown in Eagle's minimum essential medium supplemented with 10% heat-inactivated fetal bovine serum, Eagle's minimum essential medium nonessential amino acids, 20 mM 4-(2-hydroxyethyl)-1-piperazineethanesulfonic acid, 2mM glutamine, and penicillin-streptomycin (Gibco). The medium was changed every 48 hours.
LS-174T cells were seeded at a density of 2×10^5 / 60 mm dish. […] At desired times, cell counts were performed in duplicate on a Coulter Counter after harvesting cells with gentle trypsinization.
The percentage growth inhibition values shown at 10
and 50 μM analogue concentrations were determined from
the dose-response curve experiments like those shown in
FIG. 1 and represent an average value obtained for each
analogue from two or more separate experiments. Sp-6-SET-

[8] = test system: LS-174T human colon carcinoma cells; assay: Additive growth inhibition with 8-Cl-cAMP (Table 19); format: cell-based
Experimental: The medium was changed every 48 hours.
At desired times, cell counts were performed in duplicate on a Coulter Counter after harvesting cells with gentle trypsinization.
The analogues were added at 24

HL-60 leukemia cells = assay: Surface antigen expression of HL-60 cells (Example 5); format: cell-based, human; settings: Homo sapiens, HL-60, 72 h
Experimental: as §13
The effect of Rp- and Sp-8-Cl-cAMPS on the expression of differentiation markers in HL-60 cells was examined to determine if the growth-arrested HL-60 cells are more differentiated than untreated cells. […] For each sample, 2×10^4 cells were analyzed. Cell surface antigen analysis was performed by flow cytometry with FACScan. Cell gating was performed using forward and side scatter.

[9] = test system: cAMP-phosphodiesterase (PDE); settings: no test described; cited from earlier work

T1 sequence (G1TDN4 1-381): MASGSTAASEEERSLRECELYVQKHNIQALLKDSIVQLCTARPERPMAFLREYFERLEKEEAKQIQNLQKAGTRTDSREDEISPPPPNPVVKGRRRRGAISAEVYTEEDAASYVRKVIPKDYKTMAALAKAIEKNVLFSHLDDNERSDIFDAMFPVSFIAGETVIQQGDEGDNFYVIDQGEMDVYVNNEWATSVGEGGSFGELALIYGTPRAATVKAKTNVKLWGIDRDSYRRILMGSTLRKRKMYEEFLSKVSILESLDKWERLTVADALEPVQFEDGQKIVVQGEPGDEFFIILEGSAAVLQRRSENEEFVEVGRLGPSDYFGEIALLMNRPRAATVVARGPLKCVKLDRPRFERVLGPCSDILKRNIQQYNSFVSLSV
T2 sequence (P00515 whole entry): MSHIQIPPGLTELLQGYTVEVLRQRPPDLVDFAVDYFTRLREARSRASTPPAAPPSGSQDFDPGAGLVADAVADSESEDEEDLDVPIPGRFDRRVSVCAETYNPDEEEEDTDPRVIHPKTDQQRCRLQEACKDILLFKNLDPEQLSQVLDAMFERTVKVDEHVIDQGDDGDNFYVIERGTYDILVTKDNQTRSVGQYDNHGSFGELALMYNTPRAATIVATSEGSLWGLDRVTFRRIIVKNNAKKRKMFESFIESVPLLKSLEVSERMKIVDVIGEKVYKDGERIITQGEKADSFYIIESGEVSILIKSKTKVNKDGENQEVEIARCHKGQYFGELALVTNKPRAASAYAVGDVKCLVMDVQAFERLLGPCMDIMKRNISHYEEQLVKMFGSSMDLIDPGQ
T3 sequence (G1TDN4 1-381): as the sequence (G1TDN4 1-381) above
T4 sequence (P00515 2-401 limits assumed): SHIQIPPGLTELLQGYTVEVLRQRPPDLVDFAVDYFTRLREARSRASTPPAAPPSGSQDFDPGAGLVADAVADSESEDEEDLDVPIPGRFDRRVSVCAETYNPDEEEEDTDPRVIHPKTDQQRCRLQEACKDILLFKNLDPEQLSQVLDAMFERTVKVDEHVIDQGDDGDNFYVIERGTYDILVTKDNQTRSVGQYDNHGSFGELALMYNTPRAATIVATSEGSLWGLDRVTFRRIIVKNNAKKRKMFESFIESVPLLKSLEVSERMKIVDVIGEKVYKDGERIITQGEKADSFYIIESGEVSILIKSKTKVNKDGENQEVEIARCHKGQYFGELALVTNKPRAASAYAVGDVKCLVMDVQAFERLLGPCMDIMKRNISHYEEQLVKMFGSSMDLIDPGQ

Nc1ncnc2c1nc(Cl)n2[C@@H]1O[C@@H]2CO[P@@](O)(=S)O[C@H]2[C@H]1O [Rp-8-Cl-cAMPS, Rp-(equatorial exocyclic sulfursubstitution) 8-chloro-adenosine 3': 5'-monophosphorothioate]
relative affinity Ki (cAMP)/Ki (analogue), RI Site A ([1]; Site A (Site 2)): 0.0079
relative affinity Ki (cAMP)/Ki (analogue), RI Site B ([1]; Site B (Site 1)): 0.0042
decrease in affinity for Site A of RI vs corresponding cyclophosphate ([1]; vs cyclophosphate): 340 fold
decrease in affinity for Site B of RI vs corresponding cyclophosphate ([1]; vs cyclophosphate): 480 fold
affinity for cAMP receptor protein / protein kinase [2]: reduced affinity for the cAMP receptor protein
relative affinity Ki (cAMP)/Ki (analogue), RII Site A ([3]; Site A (Site 2)): 0.00028
relative affinity Ki (cAMP)/Ki (analogue), RII Site B ([3]; Site B (Site 1)): 0.44
decrease in affinity for Site A of RII vs corresponding cyclophosphate ([3]; vs cyclophosphate): 180 fold
decrease in affinity for Site B of RII vs corresponding cyclophosphate ([3]; vs cyclophosphate): 10 fold
Activation Constant (Ka), cAKI [4]: U. M.
Activation Constant (Ka), cAKII [5]: U. M.
growth inhibitory potency ([6]; HL-60): less inhibitory than 8-Cl-cAMP but was more potent than Sp-8-Cl-cAMPS
IC50 ([6]; HL-60, 72 h, read-out: Growth inhibition (IC50), Day 3): 16 µM
IC50 ([6]; HL-60, 144 h, read-out: Growth inhibition (IC50), Day 6): 3 µM
fold less potent than 8-Cl-cAMP [6]: about 10 fold
fold less potent than 8-Cl-cAMP ([6]; listed as Rp-phosphorothioate of 8-Cl-cAMP): 10 fold
growth inhibitory effect greater than that of Sp-8-Cl-cAMPS ([6]; vs Sp-8-Cl-cAMPS): 3 fold
% G2 M (HL-60 Cells; 10 μM, 96 hours): 9.8%
% G0-G1 (HL-60 Cells; 10 μM, 96 hours): 43.5%
% S (HL-60 Cells; 10 μM, 96 hours): 46.7%
% G2 M (HL-60 Cells; 50 μM, 96 hours): 9.0%
% G0-G1 (HL-60 Cells; 50 μM, 96 hours): 41.6%
% S (HL-60 Cells; 50 μM, 96 hours): 49.4%
% G2 M (HL-60 Cells; 100 μM, 96 hours): 10.9%
% G0-G1 (HL-60 Cells; 100 μM, 96 hours): 37.9%
% S (HL-60 Cells; 100 μM, 96 hours): 51.2%
toxic effect (HL-60 Cells; 100 μM, 96 hours, footnote b): Toxic effect
cell cycle phase distribution (HL-60 Cells; HL-60, 96 hours in Table 17): not appreciably different; also recorded: did not bring about any change in cell cycle phase
inhibition at 10 µM ([7]; Homo sapiens, LS174T): 48%
inhibition at 50 µM ([7]; Homo sapiens, LS174T): 70%
growth inhibitory potency ([7]; LS-174T): greatest inhibition of cell growth
inhibition at 5 µM ([8]; Homo sapiens, LS174T, 96 h, 5 μM, 4 days): 34%
inhibition at 10 µM ([8]; Homo sapiens, LS174T, 96 h, 10 μM, 4 days): 48%
inhibition at 200 µM ([8]; Homo sapiens, LS174T, 96 h, 200 μM, 4 days): 80%
effect on growth-inhibitory effect of 8-Cl-cAMP ([8]; with 8-Cl-cAMP): additive effect
viability at 50 µM (HL-60 leukemia cells; read-out: cell viability): 90%
fold induction at 50 µM (HL-60 leukemia cells; read-out: increase of HLA-DR over control): 2
fold induction at 50 µM (HL-60 leukemia cells; read-out: increase of Leu-15 over control): 3
hydrolysis by phosphodiesterase [9]: resistant to hydrolysis
